We go through 59 substances from patent US7833967B2, “Synthetic antimicrobial polypeptides” (priority 2003, dated 2010).

One experiment relates to E. coli TOP10. Description: Suicide expression system (SES) growth inhibition. Format: cell-based. Particulars: Table 1; 0.1% inducer (arabinose), pBAD/gIIIA in E. coli TOP10, Bioscreen C 37° C., end point OD450 vs control vector.
On to “2 (RRRPRFPPRFPPRFPPRFPPRFPPRFP; Synthetic antimicrobial peptide) [compound 2]”, for which the “Growth inhibition (%)” value was 45%.
On the same count and under the same terms, with “1 (RRRPPRFPPRFPPRFPPRFPPRFPPRF; Synthetic antimicrobial peptide) [compound 1]” the figure was 48%.

The same experiment, now with this note: Table 2; variants of SEQ ID NO:1, re-tested in the Bioscreen C.
Turning to “25 (RRRPPRLPPRFPPRFPPRVPPRVPPRI; Synthetic antimicrobial peptide) [compound 25]”, the “Growth inhibition (%)” value came to 81%.
The same measure, in the same setting: the same measure for “14 (RRRPPRFPPRIPPRFPPRLPPRIPPRL; Synthetic antimicrobial peptide) [compound 14]”: 90%; for “26 (RRRPPRVPPRFPPRVPPRFPPRVPLRL; Synthetic antimicrobial peptide) [compound 26]”: 86%; for “19 (RRRPPRLPPRFPPRFPPRIPPRFPPRI; Synthetic antimicrobial peptide) [compound 19]”: 78%.
On the same count and under the same terms, the same measure for “27 (RRRPPRLPPRLPPRLPPRVPPRVPLVSNCSRTKTHLRRGSE; Synthetic antimicrobial peptide) [compound 27]”: 90%.

Still in this experiment, the particulars now being: Table 3; variants of SEQ ID NO:5, re-tested in the Bioscreen C.
On to “50 (RRRPRPFPRPLPRPVPRPFPRPVPRPV; Synthetic antimicrobial peptide) [compound 50]”, for which the “Growth inhibition (%)” value is 69%.
The same measure, in the same setting: the same measure for “42 (RRRPRPFPRPFPRPIPRPFPRPLPRPI; Synthetic antimicrobial peptide) [compound 42]”: 66%; for “28 (RRRPRPFPRPFPRPFPRPFPRPFPRPF; Synthetic antimicrobial peptide) [compound 28]”: 57%; for “33 (RRRPRPFPRPFPRPFPRPFPRPFPRPF; Synthetic antimicrobial peptide) [compound 33]”: 79%.
Still for that read-out and setting: the same measure for “48 (RRRPRPFPRPFPRPVPRPVPRPVPRPF; Synthetic antimicrobial peptide) [compound 48]”: 59%.
On the same count and under the same terms, with “38 (RRRPRPFPRPFPRPFPRPIPRPVPRPI; Synthetic antimicrobial peptide) [compound 38]” the figure was 64%.
As for “36 (RRRPRPFPRPFPRPFPRPFPRPIPRPI; Synthetic antimicrobial peptide) [compound 36]”, the “Growth inhibition (%)” value turned out to be 77%.

The experiment is the same for the next values; noted with them: Table 4; variants of SEQ ID NO:10, re-tested in the Bioscreen C.
Consider “137 (RRRPLRPPFRPPFRPPIRPPFRPPVRP; Synthetic antimicrobial peptide) [compound 137]”, for which the “Growth inhibition (%)” value was found to be 58%.
Consider “98 (RRRPFRPPFRPPVRPPIRPPLRPPFRP; Synthetic antimicrobial peptide) [compound 98]”, for which the “Growth inhibition (%)” value is 63%.
As for “83 (RRRPLRPPFRPPIRPPVRPPFRPPVRP; Synthetic antimicrobial peptide) [compound 83]”, the “Growth inhibition (%)” value amounted to 72%.
The same measure, in the same setting: the same measure for “99 (RRRPFRPPIRPPIRPPFRPPIRPPFRP; Synthetic antimicrobial peptide) [compound 99]”: 79%; for “119 (RRRPIRPPFRPPIRPPFRPPVRPPVRP; Synthetic antimicrobial peptide) [compound 119]”: 69%; for “188 (RRRPFRPPFRPPIRPPVRPPVRPPFRP; Synthetic antimicrobial peptide) [compound 188]”: 83%.
On to “166 (RRRPLRPPVRPPFRPPVRPPVRPPLRP; Synthetic antimicrobial peptide) [compound 166]”, for which the “Growth inhibition (%)” value is reported as 55%.
In the case of “93 (RRRPFRPPFRPPFRPPVRPPLRPPIRP; Synthetic antimicrobial peptide) [compound 93]”, the “Growth inhibition (%)” value came out at 61%.
Same read-out and setting: with “147 (RRRPFRPPFRPPIRPPVRPPVRPPFRP; Synthetic antimicrobial peptide) [compound 147]” the figure was 79%; with “206 (RRRPFRPPFRPPFRPPFRPPFRPPFRP; Synthetic antimicrobial peptide) [compound 206]”, 77%; with “69 (RRRPIRPPFRPPFRPPLRPPFRPPIRP; Synthetic antimicrobial peptide) [compound 69]”, 75%.
Regarding “136 (RRRPFRPPFRPPIRPPFRPPIRPPLRP; Synthetic antimicrobial peptide) [compound 136]”, the “Growth inhibition (%)” value is recorded as 77%.
The same measure, in the same setting: with “103 (RRRPLRPPIRPPIRPPVRPPFRPPIRP; Synthetic antimicrobial peptide) [compound 103]” the figure was 73%.
Still for that read-out and setting: the same measure for “121 (RRRPIRPPLRPPVRPPIRPPFRPPFRP; Synthetic antimicrobial peptide) [compound 121]”: 65%.
Same read-out and setting: the same measure for “96 (RRRPFRPPIRPPFRPPIRPPLRPPIRP; Synthetic antimicrobial peptide) [compound 96]”: 71%; for “130 (RRRPFRPPIRPPLRPPFRPPVRPPLRP; Synthetic antimicrobial peptide) [compound 130]”: 78%.
Take “195 (RRRPFRPPIRPPFRPPVRPPVRPPVRP; Synthetic antimicrobial peptide) [compound 195]”: the “Growth inhibition (%)” value came out at 76%.
The same measure, in the same setting: the same measure for “182 (RRRPFRPPIRPPFRPPIRPPVRPPFRP; Synthetic antimicrobial peptide) [compound 182]”: 83%; for “198 (RRRPFRPPFRPPFRPPFRPPFRPPFRP; Synthetic antimicrobial peptide) [compound 198]”: 91%.
Still for that read-out and setting: the same measure for “185 (RRRPLRPPIRPPIRPPFRPPFRPPFRP; Synthetic antimicrobial peptide) [compound 185]”: 79%; for “108 (RRRPLRPPFRPPIRPPVRPPVRPPFRP; Synthetic antimicrobial peptide) [compound 108]”: 76%.
Still for that read-out and setting: with “126 (RRRPIRPPIRPPLRPPFRPPFRPPFRP; Synthetic antimicrobial peptide) [compound 126]” the figure was 77%; with “76 (RRRPIRPPFRPPIRPPVRPPFRPPIRP; Synthetic antimicrobial peptide) [compound 76]”, 86%.
For “92 (RRRPVRPPIRPPFRPPFRPPFRPPFRP; Synthetic antimicrobial peptide) [compound 92]”, the “Growth inhibition (%)” value came out at 85%.

Staying with this experiment, now noted: Table 5; mixed-motif library, re-tested in the Bioscreen C.
For “262 (RRRPPRLPRPIPVRPPPRLPRPVPLRP; Synthetic antimicrobial peptide) [compound 262]”, the “Growth inhibition (%)” value stood at 93%.
The same measure, in the same setting: the same measure for “253 (RRRPPRLPRPIPFRPPPRLPRPIPIRP; Synthetic antimicrobial peptide) [compound 253]”: 91%.
Still for that read-out and setting: with “257 (RRRPPRLPRPIPVRPPPRFPRPIPFRP; Synthetic antimicrobial peptide) [compound 257]” the figure was 92%; with “313 (RRRPPRVPRPIPIRPPPRVPRPVPVRP; Synthetic antimicrobial peptide) [compound 313]”, 92%; with “211 (RRRPPRLPRPFPFRPPPRFPRPIPFRP; Synthetic antimicrobial peptide) [compound 211]”, 96%.
Same read-out and setting: with “292 (RRRPPRLPRPLPVRPPPRVPRPVPFRP; Synthetic antimicrobial peptide) [compound 292]” the figure was 93%; with “231 (RRRPPRLPRPFPLRPPPRLPRPFPFRP; Synthetic antimicrobial peptide) [compound 231]”, 98%.
With “269 (RRRPPRLPRPLPFRPPPRVPRPVPVRP; Synthetic antimicrobial peptide) [compound 269]”, the “Growth inhibition (%)” value is reported as 90%.
Take “256 (RRRPPRLPRPIPLRPPPRVPRPIPIRP; Synthetic antimicrobial peptide) [compound 256]”: the “Growth inhibition (%)” value was determined as 91%.
On the same count and under the same terms, with “260 (RRRPPRLPRPIPVRPPPRIPRPIPVRP; Synthetic antimicrobial peptide) [compound 260]” the figure was 90%.
Same read-out and setting: with “247 (RRRPPRLPRPFPVRPPPRVPRPLPFRP; Synthetic antimicrobial peptide) [compound 247]” the figure was 93%; with “251 (RRRPPRLPRPIPFRPPPRIPRPLPFRP; Synthetic antimicrobial peptide) [compound 251]”, 96%; with “278 (RRRPPRLPRPLPIRPPPRVPRPLPFRP; Synthetic antimicrobial peptide) [compound 278]”, 98%.
Still for that read-out and setting: the same measure for “271 (RRRPPRLPRPLPFRPPPRVPRPVPVRP; Synthetic antimicrobial peptide) [compound 271]”: 97%.
As to “212 (RRRPPRLPRPFPFRPPPRFPRPVPIRP; Synthetic antimicrobial peptide) [compound 212]”, the “Growth inhibition (%)” value is recorded as 96%.
The same measure, in the same setting: the same measure for “208 (RRRPPRFPRPFPVRPPPRFPRPIPVRP; Synthetic antimicrobial peptide) [compound 208]”: 95%; for “289 (RRRPPRLPRPLPVRPPPRVPRPFPVRP; Synthetic antimicrobial peptide) [compound 289]”: 95%; for “288 (RRRPPRLPRPLPVRPPPRVPRPFPLRP; Synthetic antimicrobial peptide) [compound 288]”: 96%.
As for “255 (RRRPPRLPRPIPIRPPPRFPRPVPFRP; Synthetic antimicrobial peptide) [compound 255]”, the “Growth inhibition (%)” value worked out at 93%.
On the same count and under the same terms, with “290 (RRRPPRLPRPLPVRPPPRVPRPLPLRP; Synthetic antimicrobial peptide) [compound 290]” the figure was 94%.
Take “295 (RRRPPRLPRPVPFRPPPRIPRPFPLRP; Synthetic antimicrobial peptide) [compound 295]”: the “Growth inhibition (%)” value turned out to be 59%.
